# Laboratory results from patent publication US10323007B1, “N2N N4-disubstituted quinazoline-2,4-diamines and uses thereof” (University of South Florida, priority 2016, dated 2019).
# Like-named read-outs stand apart in the source and are kept apart here.
# How the values were obtained:
# Format in all cases: cell-based, Acinetobacter baumannii
# A. baumannii 1403 = experiment: MIC assay, strain 1403; conditions: Acinetobacter baumannii, strain 1403, read-out: 1403 MIC
# Experimental: (§1) MIC and MBC assays were performed in this study as documented by us previously.^17,23,24,25 The A. baumannii strains used are detailed in Table 7.
# A. baumannii 1646 = experiment: MIC assay, strain 1646; conditions: Acinetobacter baumannii, strain 1646, read-out: 1646 MIC
# Experimental: as §1
# A. baumannii 1649 = experiment: MIC assay, strain 1649; conditions: Acinetobacter baumannii, strain 1649, read-out: 1649 MIC
# Experimental: as §1
# A. baumannii 1650 = experiment: MIC assay, strain 1650; conditions: Acinetobacter baumannii, strain 1650, read-out: 1650 MIC
# Experimental: as §1
# A. baumannii 1651 = experiment: MIC assay, strain 1651; conditions: Acinetobacter baumannii, strain 1651, read-out: 1651 MIC
# Experimental: as §1
# A. baumannii 1652 = experiment: MIC assay, strain 1652; conditions: Acinetobacter baumannii, strain 1652, read-out: 1652 MIC
# Experimental: as §1
# A. baumannii = experiment: MIC assay, A. baumannii isolates (strain not given); conditions: Acinetobacter baumannii; strain not given; read-out: MIC
# Experimental: as §1
# [1] = Tables 1, 3, 4, 5 and footnotes
Structure (SMILES),MIC (A. baumannii 1403; [1]),MIC (A. baumannii 1646; [1]),MIC (A. baumannii 1649; [1]),MIC (A. baumannii 1650; [1]),MIC (A. baumannii 1651; [1]),MIC (A. baumannii 1652; [1]),MIC (A. baumannii 1403; Table 2),MIC (A. baumannii 1646; Table 2),MIC (A. baumannii 1649; Table 2),MIC (A. baumannii 1650; Table 2),MIC (A. baumannii 1651; Table 2),MIC (A. baumannii 1652; Table 2),MIC (A. baumannii)
"CNc1nc(NCc2ccccc2)c2cc(Cl)ccc2n1 [Compound 9, N^4-Benzyl-6-chloro-N^2-methylquinazoline-2,4-diamine]",> 50 µM,4 µM,50 µM,50 µM,6 µM,> 50 µM,–,–,–,–,–,–,–
"CNc1nc(NCc2ccccc2)nc2cc(Br)ccc12 [Compound 6, N^2-Benzyl-7-bromo-N^4-methylquinazoline-2,4-diamine]",–,–,–,–,–,–,> 50 µM,6 µM,25 µM,> 50 µM,10 µM,> 50 µM,–
"CNc1nc(NCc2ccccc2)c2ccc(C)cc2n1 [Compound 15, N^4-Benzyl-N^2,7-dimethylquinazoline-2,4-diamine]",> 50 µM,12 µM,> 50 µM,> 50 µM,> 50 µM,> 50 µM,–,–,–,–,–,–,–
"CNc1nc(NCc2ccccc2)nc2ccccc12 [Compound 8, N^2-benzyl-N^4-methylquinazolin-2,4-diamine]",–,–,–,–,–,–,> 50 µM,50 µM,> 50 µM,> 50 µM,> 50 µM,> 50 µM,≥ 50 µM
"CNc1nc(NCCc2ccccc2)nc2ccc(C)cc12 [Compound 20, N^4,6-Dimethyl-N^2-phenethylquinazoline-2,4-diamine]",> 50 µM,2 µM,> 50 µM,> 50 µM,10 µM,> 50 µM,–,–,–,–,–,–,2 to 4 µM
"CNc1nc(NCCc2ccccc2)nc2ccc(Cl)cc12 [Compound 17, 6-Chloro-N^4-methyl-N^2-phenethylquinazoline-2,4-diamine]",> 50 µM,2 µM,> 50 µM,> 50 µM,> 50 µM,> 50 µM,–,–,–,–,–,–,2 to 4 µM
"CNc1nc(NCc2ccccc2)c2cc(OC)ccc2n1 [Compound 12, N^4-Benzyl-6-methoxy-N^2-methylquinazoline-2,4-diamine]",> 50 µM,6 µM,> 50 µM,> 50 µM,8 µM,> 50 µM,–,–,–,–,–,–,–
"CNc1nc(NCc2ccccc2)nc2cc(C)ccc12 [Compound 7, N^2-Benzyl-N^4,7-dimethylquinazoline-2,4-diamine]",–,–,–,–,–,–,50 µM,12 µM,25 µM,50 µM,12 µM,35 µM,–
"CNc1nc(NCCc2ccccc2)nc2ccc(OC)cc12 [Compound 18, 6-Methoxy-N^4-methyl-N^2-phenethylquinazoline-2,4-diamine]",> 50 µM,4 µM,> 50 µM,> 50 µM,> 50 µM,> 50 µM,–,–,–,–,–,–,2 to 4 µM
"CNc1nc(NCc2ccccc2)c2ccc(Br)cc2n1 [Compound 14, N^4-Benzyl-7-bromo-N^2-methylquinazoline-2,4-diamine]",> 50 µM,4 µM,> 50 µM,> 50 µM,> 50 µM,> 50 µM,–,–,–,–,–,–,–
"CNc1nc(NCc2ccccc2)nc2ccc(Cl)cc12 [Compound 1, N^2-Benzyl-6-chloro-N^4-methylquinazoline-2,4-diamine]",50 µM,2 µM,25 µM,15 µM,6 µM,20 µM,–,–,–,–,–,–,–
"CNc1nc(NCc2ccccc2)nc2cc(Cl)ccc12 [Compound 2, N^2-Benzyl-7-chloro-N^4-methylquinazoline-2,4-diamine]",> 50 µM,6 µM,30 µM,> 50 µM,10 µM,50 µM,–,–,–,–,–,–,–
